SMILES strings stand for the structures. Where only a bound is given, the exact number is not on record here.

The nature of assay [1]: Sensory evaluation of p-cresol odor masking in p-cresol-containing citrus-flavored beverage. Particulars: for p-Cresol Odor Intensity: beverage with 50 ppb p-cresol, average score of 7 panelists, scale 0-4. As for the experimental part:
To 2 g of lemon flavor obtained by making lemon oil into an essence, purified water was added to adjust the total amount to 1000 ml. To this citrus-flavored beverage, p-cresol adjusted to a concentration of 1% by mass with 95% ethanol was added to 50 ppb in the citrus-flavored beverage. To this p-cresol-containing citrus-flavored beverage, 1-oxacycloheptadecan-7-en-2-one was added at the concentrations presented in Table 1 to confirm the p-cresol odor intensity (masking effect) and the influence on the citrus flavor of each sample.
For the test, seven skilled panelists were selected to perform sensory evaluation. The p-cresol odor intensity of the p-cresol-containing citrus-flavored beverage without added l-oxacycloheptadecan-7-en-2-one was determined as “Rating: 4,” and the p-cresol odor intensity of the p-cresol-free citrus-flavored beverage was determined as “Rating: 0,” and the p-cresol odor intensity (masking effect) of each sample was relatively evaluated according to the following evaluation criteria.
In addition, the influence of the citrus-flavored beverage on the citrus flavor was evaluated absolutely according to the following evaluation criteria for the presence or absence of off- flavor other than p-cresol odor and citrus flavor (Off-Flavor Intensity).
The results are as in Table 1, presenting the average score of the evaluation results for each panelist.

The next assay concerns the target T1, olfactory receptor OR9Q2 (Homo sapiens, UniProt Q8NGE9).
T1 construct: 20 N-terminal amino acid residues of bovine rhodopsin (Rho tag); expressed in transfected cells; host or cells: HEK293T
T1 sequence (Q8NGE9 1-314): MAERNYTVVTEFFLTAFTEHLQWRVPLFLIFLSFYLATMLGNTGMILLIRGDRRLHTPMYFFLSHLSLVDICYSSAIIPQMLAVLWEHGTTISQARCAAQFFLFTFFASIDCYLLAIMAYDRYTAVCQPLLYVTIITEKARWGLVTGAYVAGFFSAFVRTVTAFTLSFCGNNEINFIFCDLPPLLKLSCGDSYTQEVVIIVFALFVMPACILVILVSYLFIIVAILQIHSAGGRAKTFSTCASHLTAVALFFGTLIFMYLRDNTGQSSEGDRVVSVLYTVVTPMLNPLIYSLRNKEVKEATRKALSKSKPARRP
Kind of assay: OR9Q2 response inhibitory effect for p-cresol, luciferase reporter gene assay. As to conditions: p-cresol 100 µM mixed with various concentrations of compound; cells expressing OR9Q2; ratio of Fold Increase value (FIGS. 1 to 11). It counts as cell-based. As for the experimental part: The human olfactory receptor gene was obtained by cloning from Human Genomic DNA: Female (Promega) by PCR method based on the sequence information registered in GenBank. The 20 N-terminal amino acid residues of bovine rhodopsin were incorporated into the pME18S vector, and the obtained human olfactory receptor gene was incorporated downstream thereof to obtain a human olfactory receptor gene expression vector.
In 10 µL of Opti-MEM I (gibco), 0.05 µg of human olfactory receptor gene expression vector, 0.01 µg of RTP1S vector, 0.01 µg firefly luciferase vector pGL4.29 (Promega) containing cAMP response element promoter, and 0.005 µg of Renilla luciferase vector pGL4.74 (Promega) containing thymidine kinase promoter were dissolved to prepare a gene solution (for one well). HEK293T cells were seeded at 100 µL each in a 96-well plate (Biocoat, Coming) at the number of cells reaching confluence after 24 hours, and a gene solution was added to each well by the lipofection method according to the usage of Lipofectamine 3000 to introduce genes into the cells, and the cells were cultured at 37° C. in a 5% carbon dioxide atmosphere for 24 hours.
After removing the culture medium, the resultant was prepared with CD293 (gibco) medium ([…] added) so as to have a concentration for measuring the aroma substance to be tested, 50 µL of which was added each and stimulated for 3 hours, and then luciferase activity was measured according to the method of using the Dual-Luciferase Reporter Assay System (Promega). The response intensity of the olfactory receptor polypeptide was expressed as a Fold Increase value obtained by dividing the luciferase activity produced by stimulating the aroma substance by the luciferase activity produced in the test system containing no aroma substance.
p-Cresol at 100 µM was mixed with various concentrations of 1-oxacycloheptadecan-7-en-2-one, 1-oxacycloheptadecan-8-en-2-one, isoambrettolide, pentalide, muscone, civetone, 8-2-decenolactone, cinnamic aldehyde, […], sclareolide, and ethyl maltol, and receptor responses were measured in cells expressing OR9Q2. The ratio of the Fold Increase value in the test in which each compound was mixed was calculated, where the Fold Increase value in the test in none of these compounds was mixed was set to 100. FIGS. 1 to 11 present the results.
(In general: Reporter assays use an easily measured gene product as a stand-in for the process of interest.)

Assay [2] is described as follows: Sensory evaluation of p-cresol odor masking in p-cresol-containing citrus-flavored confectionery (tablet). As to conditions: for p-Cresol Odor Intensity: tablet with 200 ppb p-cresol, average score of 6 panelists, scale 0-4. As for the experimental part: Lemon cold-pressed oil was added to the tablet having the composition presented in Table A at a concentration of 1 % by mass, and medium chain fatty acid triglycerides (MCT) was used to adjust p-cresol to a concentration of 0.1%, which was further added so as to reach 200 ppb in the citrus flavored confectionery. To this p-cresol-containing citrus-flavored confectionery, 1-oxacycloheptadecan-7-en-2-one was added at the concentrations presented in Table 12, and then tableting was performed to confirm the p-cresol odor intensity (masking effect) and the influence on the citrus flavor of each sample.
Six skilled panelists were selected to perform the same sensory evaluation as in Example 1. The results are as in Table 12, presenting the average score of the evaluation results for each panelist.

Setting [3] is: citrus-flavored beverage with 50 ppb p-cresol.
Where [4] appears, read: citrus-flavored confectionery (tablet) with 200 ppb p-cresol.

Regarding `O=C1CCCCCCC/C=C\CCCCCCO1` [Isoambrettolide, isoambrettolide], the “p-Cresol Odor Intensity” value in assay [1] (0.01 ppt added) was determined as 3.7 points; in assay [1] (0.1 ppt added), 2.7 points; in assay [1] (1 ppb added), 1.3 points; in assay [1] (1 ppt added), 2.4 points; in assay [1] (10 ppb added), 1.3 points; in assay [1] (10 ppt added), 2.1 points. Also, the “p-Cresol Odor Intensity” value in assay [1] (100 ppb added) came to 0.9 points; in assay [1] (100 ppt added), 1.6 points; in assay [2] (4 ppb added), 2.5 points; in assay [2] (40 ppb added) it was 1.8 points; in assay [2] (40 ppt added) it was 3.0 points; in assay [2] (400 ppb added), 1.5 points. For the same compound, the “p-Cresol Odor Intensity” value in assay [2] (400 ppt added) was 2.7 points. The “concentration at which the compound masks the p-cresol odor and does not affect the citrus flavor, lower limit” value in assay [1] (setting [3]) is on record as ≥ 0.1 ppt; in assay [2] (setting [4]), ≥ 400 ppt. Besides, the “concentration at which the compound masks the p-cresol odor and does not affect the citrus flavor, upper limit” value in assay [1] (setting [3]) is on record as ≤ 1 ppb; in assay [2] (setting [4]), ≤ 400 ppb. Moreover, the “effect of suppressing the response of OR9Q2 to p-cresol” value on olfactory receptor OR9Q2 was “suppressing the response of OR9Q2 to p-cresol in a concentration-dependent manner”.

For the origin of these results see patent US20230180804A1, “FLAVOR COMPOSITION, AND FOOD AND BEVERAGE” (TAKASAGO INTERNATIONAL CORPORATION, priority 2020, published 2023).
